Laboratory results: US5514662A, “Use of amphotericin B derivatives as protease inhibitors” (priority 1991, dated 1996)

Assays:
SIVmac251 = assay: Formation of syncytia in HUT78 cells infected with SIVmac251; format: cell-based, SIV
Protocol: (§1) HUT78 cells were inoculated in 96-well plates in an amount of 2×10^4 cells per well, in […]. They were infected with various viral concentrations and DABF-AmB was added immediately after the infection, at various concentrations. The formation of syncytia was evaluated after 3 and 5 days by direct reading under an inverted microscope (semi-quantitative test).

HIV = assay: Viral expression in reactivated infected CD4 cells from patients (p24 ELISA); format: cell-based; settings: Human immunodeficiency virus 1, 240 h, 7 patients tested
From the text: The activation of infected CD4+cells is known to stimulate the production of the virus. The effect of DABF-AmB was therefore tested on the vital expression in cells from AIDS patients reactivated in vitro by anti-CD3, by anti-CD28, by PMA (phorbol myristate acetate) or by soluble anti-CD3.
PBMCs from patients (<300 CD4) were isolated on a Ficoll gradient using blood. The CD4 cells were isolated by cell sorting using a flow cytometer (FACS-Star, Becton-Dickinson, Mountain View, Calif.) after OKT4-FITC labelling. The CD4 cells were washed again and then re-inoculated as indicated in 5 and activated either with anti-CD3 or anti-CD28 antibodies or with PMA. Viral expression was evaluated after 10 days by ELISA assay of p24 in the supernatants.

HIV2-rod = assay: Formation of syncytia in HUT78 cells infected with HIV2-rod; format: cell-based, HIV-2
Protocol: as §1

reverse transcriptase = biological target: T1, reverse transcriptase (Human immunodeficiency virus type 1 (BRU ISOLATE), UniProt P03367); assay: Direct action on reverse transcriptase in vitro; format: biochemical
T1 construct: probably viral enzyme of LAV/BRU (LAI) culture supernatant

human thymocytes = assay: Distribution of CD4 and CD8 cells in uninfected activated thymocytes; format: cell-based
Protocol: Human thymuses were obtained during corrective heart surgery operations on 3 to 7 year old children. The tissues were cut into fragments and the red blood cells were removed by treating with […] buffer. After washing in PBS buffer, cellular suspensions were prepared in an RPMI 1640 medium containing 10% of human serum type […]. Dead cells were removed by passing over a sterile nylon wool column.
The cells were infected with HIV LAV/BRU as indicated above in the general procedures, and then re-inoculated in the presence of PHA, of anti-CD2 or anti-CD3 antibodies and of IL2 and cultured for 10 days at a rate of 1×10^7 cells/ml. After 10 days, viral production was evaluated by measuring the RT activity in the supernatants and the distribution of CD4/CD8 was evaluated by double fluorescence flow cytometry by means of FITC-labelled anti-CD4 antibodies (OKT4) and phycoerythrin-labelled anti-CD8 antibodies (OKT8). DABF-AmB was added to the cultures immediately after infection and maintained during the entire duration of the culture.

C[C@@H]1[C@H](O)[C@@H](C)/C=C/C=C/C=C/C=C/C=C/C=C/C=C/[C@H](O[C@@H]2O[C@H](C)[C@@H](O)[C@H](NCC(=O)[C@@H](O)[C@@H]3OC(c4ccccc4)OC[C@H]3O)[C@@H]2O)C[C@@H]2O[C@](O)(C[C@@H](O)C[C@@H](O)[C@H](O)CC[C@@H](O)C[C@@H](O)CC(=O)O[C@H]1C)C[C@H](O)[C@H]2C(=O)O (stereo partly drawn) [DABF-AmB, 1-deoxy-1-amino-4,6-O-benzylidene-D-fructosyl-AmB]
-: formation of syncytia (SIVmac251; 0.1 μM, 10 TCID50, 3 days) | formation of syncytia (SIVmac251; 0.5 μM, 10 TCID50, 3 days) | formation of syncytia (SIVmac251; 1 μM, 10 TCID50, 3 days) | formation of syncytia (SIVmac251; 5 μM, 10 TCID50, 3 days) | formation of syncytia (SIVmac251; 10 μM, 10 TCID50, 3 days) | formation of syncytia (SIVmac251; 10 μM, 10 TCID50, 5 days) | formation of syncytia (SIVmac251; 10 μM, 100 TCID50, 3 days) | formation of syncytia (SIVmac251; 10 μM, 500 TCID50, 3 days) | formation of syncytia (SIVmac251; 50 μM, 10 TCID50, 3 days) | formation of syncytia (SIVmac251; 50 μM, 100 TCID50, 3 days) | formation of syncytia (SIVmac251; 50 μM, 100 TCID50, 5 days) | formation of syncytia (SIVmac251; 50 μM, 500 TCID50, 3 days) | formation of syncytia (SIVmac251; 50 μM, 500 TCID50, 5 days) | formation of syncytia (SIVmac251; 100 μM, 10 TCID50, 5 days) | formation of syncytia (SIVmac251; 100 μM, 100 TCID50, 3 days) | formation of syncytia (SIVmac251; 100 μM, 100 TCID50, 5 days) | formation of syncytia (SIVmac251; 100 μM, 500 TCID50, 3 days) | formation of syncytia (SIVmac251; 100 μM, 500 TCID50, 5 days) | formation of syncytia (HIV2-rod; 10 μM, 10 TCID50, 3 days) | formation of syncytia (HIV2-rod; 10 μM, 10 TCID50, 5 days) | formation of syncytia (HIV2-rod; 50 μM, 10 TCID50, 5 days) | formation of syncytia (HIV2-rod; 50 μM, 100 TCID50, 3 days) | formation of syncytia (HIV2-rod; 50 μM, 100 TCID50, 5 days) | formation of syncytia (HIV2-rod; 100 μM, 100 TCID50, 3 days) | formation of syncytia (HIV2-rod; 100 μM, 100 TCID50, 5 days)
+: formation of syncytia (SIVmac251; 0.1 μM, 10 TCID50, 5 days) | formation of syncytia (SIVmac251; 0.1 μM, 100 TCID50, 3 days) | formation of syncytia (SIVmac251; 0.5 μM, 10 TCID50, 5 days) | formation of syncytia (SIVmac251; 0.5 μM, 100 TCID50, 3 days) | formation of syncytia (SIVmac251; 1 μM, 10 TCID50, 5 days) | formation of syncytia (SIVmac251; 1 μM, 100 TCID50, 3 days) | formation of syncytia (HIV2-rod; 5 μM, 100 TCID50, 3 days)
no direct action: direct action on reverse transcriptase activity (reverse transcriptase)
in a dose-dependent manner: inhibition of formation of syncytia (in words) (SIVmac251; HUT78, SIV) | inhibition of formation of syncytia (in words) (HIV2-rod; HUT78, HIV-2)
+ and -: formation of syncytia (SIVmac251; 5 μM, 500 TCID50, 5 days) | formation of syncytia (HIV2-rod; 10 μM, 100 TCID50, 3 days)
> 90%: inhibition at 10 µM (HIV)
slight increase: CD4+ CD8+ population in uninfected thymocytes (human thymocytes; up to 10 μM)
- and +: formation of syncytia (SIVmac251; 5 μM, 10 TCID50, 5 days) | formation of syncytia (SIVmac251; 5 μM, 100 TCID50, 3 days) | formation of syncytia (SIVmac251; 5 μM, 100 TCID50, 5 days) | formation of syncytia (SIVmac251; 5 μM, 500 TCID50, 3 days) | formation of syncytia (SIVmac251; 10 μM, 100 TCID50, 5 days) | formation of syncytia (SIVmac251; 10 μM, 500 TCID50, 5 days) | formation of syncytia (HIV2-rod; 5 μM, 10 TCID50, 3 days) | formation of syncytia (HIV2-rod; 5 μM, 10 TCID50, 5 days)
does not significantly modify: distribution of the CD4 and CD8 cells in uninfected thymocytes (human thymocytes; even at 10 μM, PHA, anti-CD2 or anti-CD3 activated)
